Experimental data: US4473587A, “Prostaglandin E1 analogues” (Ono Pharmaceutical Co., Ltd., priority 1982, dated 1984)
Read-outs that look alike come from different tables or passages of the source.

Experiments:
uterine contraction = uterine contraction in the pregnant female rat; type: in vivo; conditions: 20th day of gestation, i.v., doses of 50 and 20 μg/kg (compound A and compound B)
mice = assay: acute toxicity in mice by oral administration; type: in vivo, mouse; conditions: 10 mg/kg animal body weight, 5 cases
Excerpt: Therefore, the compounds of the present invention may be considered to be sufficiently safe and suitable for medical use.

blood pressure = assay: hypotensive effect in the allobarbital anesthetized dog; type: in vivo; conditions: for hypotensive side-effect: in words, in comparison with known compounds D, E, F and G; for Hypotensive effect (E1 = 1): relative to PGE1 taken as 1.00, allobarbital anesthetised dog; for Hypotensive effect (E1 = 1) / duration of fall in blood pressure / fall in blood pressure: i.v.; for duration of fall in blood pressure / fall in blood pressure: allobarbital anesthetized dog
Method: (ii) by intravenous administration to the allobarbital anesthetized dog, compound B produced falls in blood pressure of 13 and 31 mmHg lasting 17 and 37 minutes at the doses of 1 and 2 μg/kg animal body weight, respectively.
(§1) In the Table, the values of side-effects are indicated relative to the activity of PGE1, taken as 1.00.
^(2) By intravenous administration to the allobarbital anesthetised

[1] = test system: adenosine diphosphate-induced blood platelet aggregation; assay: inhibition of adenosine diphosphate-induced blood platelet aggregation in platelet rich plasma of rats; type: cell-based, rat; conditions: for platelet aggregation inhibiting side-effect: in words, in comparison with known compounds D, E, F and G; for Platelet aggregation inhibition (E1 = 1): relative to PGE1 taken as 1.00, ADP-induced, platelet rich plasma of rats
Excerpt: as §1
^(3) Inhibition of adenosine diphosphateinduced blood platelet
aggregation in plateletrich plasma of rats.

[2] = test system: D(+)-galactosamine-induced liver damage; assay: D(+)-galactosamine-induced liver damage in rats; type: in vivo; conditions: D(+)-galactosamine 375 mg/kg i.p. twice, rat, 100 μg/kg oral five times, blood at 48 hrs, vs control
[3] = test system: carbon tetrachloride-induced liver damage; assay: carbon tetrachloride-induced liver damage in rats (plasma GOT, GPT); type: in vivo, rat; conditions: for cytoprotective activity compared with known compound H / cytoprotective activity: in words; for cytoprotective activity compared with known compound H: comparison with compound H; for cytoprotective activity: from the Table; for inhibition in vivo at 0.02 mg/kg / inhibition in vivo at 0.1 mg/kg / inhibition in vivo at 0.05 mg/kg / inhibition in vivo at 0.2 mg/kg: po, CCl4, rat, vs controls; for inhibition in vivo at 0.02 mg/kg: 20 μg/kg p.o.; for inhibition in vivo at 0.1 mg/kg: 100 μg/kg p.o.; for inhibition in vivo at 0.05 mg/kg: 50 μg/kg p.o.; for inhibition in vivo at 0.2 mg/kg: 200 μg/kg p.o.
Excerpt: In the following Table, the pharmacological activities, i.e. carbon tetrachloride-induced cytodamage inhibition as an example of cytoprotective activity, and hypotensive and platelet aggregation inhibition activities as examples of side-effects, of known compounds are compared with those of compounds A, B and C of the invention.
^(1) The method used was that described in the specification of U.S.

[4] = test system: α-naphthylisothiocyanate-induced liver damage; assay: α-naphthylisothiocyanate-induced liver damage in rats; type: in vivo; conditions: rat, 100 μg/kg oral, vs controls
[5] = read-out: inhibition of plasma GOT (glutamic oxaloacetic transaminase)
[6] = read-out: inhibition of plasma GPT (glutamic pyruvic transaminase)

| Compound | deaths in acute toxicity test (mice) | hypotensive side-effect (blood pressure) | Hypotensive effect (E1 = 1) (blood pressure) | platelet aggregation inhibiting side-effect [1] | Platelet aggregation inhibition (E1 = 1) [1] | cytoprotective activity compared with known compound H [3] | cytoprotective activity [3] | inhibition in vivo at 0.1 mg/kg [3, 5] | also measured |
| --- | --- | --- | --- | --- | --- | --- | --- | --- | --- |
| CCCCC1CC[C@H]([C@H](O)/C=C/[C@H]2[C@H](O)CC(=O)[C@@H]2CC(=O)CCCCCO)C1 (stereo partly drawn) [A, 2-decarboxy-2-hydroxymethyl-6-oxo-15-(3(RS)-butyl-1(S)-cyclopentyl)-16,17,18,19,20-pentanor-PGE1] | no deaths in 5 cases | very weak side-effects | 1.2 | very weak side-effects | 0.05 | superior in their cytoprotective activity to the known compound H | possess cytoprotective activity | 71.8% | stimulation of uterine contraction (uterine contraction): stimulated uterine contraction; inhibition of plasma GOT [2]: 20.4%; inhibition of plasma GPT [2]: 45.1%; inhibition of plasma bilirubin [2]: 36.2%; inhibition in vivo at 0.02 mg/kg [3, 5]: 56.6%; inhibition in vivo at 0.02 mg/kg [3, 6]: 58.8%; inhibition in vivo at 0.1 mg/kg [3, 6]: 53.6% |
| CCCC1CCC([C@H](O)/C=C/[C@H]2[C@H](O)CC(=O)[C@@H]2CC(=O)CCCCC(=O)OC)CC1 (stereo partly shown) [G, 6Oxo-15-(4RS-propyl-1RS-cyclohexyl)-16,17,18,19,20-pentanor-PGE1 methyl ester, reference compound] |  |  | 6.2 |  | 19.7 |  | possess cytoprotective activity |  |  |
| CCCC1CCC([C@H](O)/C=C/[C@H]2[C@H](O)CC(=O)[C@@H]2CC(=O)CCCCC(=O)O)C1 (stereo partly shown) [D, 6Oxo-15-(3RS-propyl-1RS-cyclopentyl)-16,17,18,19,20-pentanor-PGE1, reference compound] |  |  | 13 |  | 48.4 |  | possess cytoprotective activity |  |  |
| CCCC1CCC([C@H](O)/C=C/[C@H]2[C@H](O)CC(=O)[C@@H]2CC(=O)CCCCC(=O)OC)C1 (stereo partly shown) [E, 6Oxo-15-(3RS-propyl-1RS-cyclopentyl)-16,17,18,19,20-pentanor-PGE1 methyl ester, reference compound] |  |  | 25.7 |  | 58.6 |  | possess cytoprotective activity | 77% |  |
| CCCCC[C@H](O)/C=C/[C@H]1[C@H](O)CC(=O)[C@@H]1CC(=O)CCCCCO [H, 2Decarboxy-2-hydroxymethyl-6-oxo-PGE1, reference compound] |  |  |  |  |  |  |  | 3.4% | inhibition in vivo at 0.1 mg/kg [3, 6]: -0.07% |
| CCCCC1CCC([C@H](O)/C=C/[C@H]2[C@H](O)CC(=O)[C@@H]2CC(=O)CCCCC(=O)OC)C1 (stereo partly shown) [F, 6Oxo-15-(3RS-butyl-1RS-cyclopentyl)-16,17,18,19,20-pentanor-PGE1 methyl ester, reference compound] |  |  | 12.6 |  | 51.0 |  | possess cytoprotective activity |  |  |
| CCCC1CC[C@H]([C@H](O)/C=C/[C@H]2[C@H](O)CC(=O)[C@@H]2CC(=O)CCCCCO)C1 (stereo partly drawn) [B, 2-decarboxy-2-hydroxymethyl-6-oxo-15-(3(RS)-propyl-1(S)-cyclopentyl)-16,17,18,19,20-pentanor-PGE1] | two deaths in 5 cases | very weak side-effects | 0.35 | very weak side-effects | 0.05 | superior in their cytoprotective activity to the known compound H | possess cytoprotective activity |  | stimulation of uterine contraction (uterine contraction): stimulated uterine contraction; duration of fall in blood pressure (blood pressure; 1 μg/kg): 17 min; fall in blood pressure (blood pressure; 1 μg/kg): 13 mmHg; duration of fall in blood pressure (blood pressure; 2 μg/kg): 37 min; fall in blood pressure (blood pressure; 2 μg/kg): 31 mmHg; inhibition of plasma GOT [4]: 52.6%; inhibition of plasma GPT [4]: 62.5%; inhibition of plasma bilirubin [4]: 30.3%; inhibition of plasma GOT [2]: 40.0%; inhibition of plasma GPT [2]: 50.3%; inhibition of plasma bilirubin [2]: 44.2%; inhibition in vivo at 0.05 mg/kg [3, 5]: 29.6%; inhibition in vivo at 0.05 mg/kg [3, 6]: 21.5% |
| O=C(CCCCCO)C[C@H]1C(=O)C[C@@H](O)[C@@H]1/C=C/[C@@H](O)C1CCCC1 [C, 2-decarboxy-2-hydroxymethyl-6-oxo-15-cyclopentyl-16,17,18,19,20-pentanor-PGE1] | no deaths in 5 cases | very weak side-effects | 0.77 | very weak side-effects |  | superior in their cytoprotective activity to the known compound H | possess cytoprotective activity |  | inhibition in vivo at 0.2 mg/kg [3, 5]: 7.9%; inhibition in vivo at 0.2 mg/kg [3, 6]: 29.9% |
